Data on 15 molecules can be found in PMC3400110 (Journal of Medicinal Chemistry, 2009).

Several values for one entry are separate records, joined by “and”; a condition that tells them apart may be missing. Equal values may be shown once. Read-outs that look alike come from different tables or passages of the source.

The target of data set [1] is T1, human P-gp-His10 (Homo sapiens, UniProt P08183).
In data set [2] the target is T1, human P-gp-His10. Description: Stimulation of human P-gp-His10 ATPase activity. The conditions noted are these: read-out: KM (apparent Michaelis-Menten constant, concentration for half maximal stimulation of ATPase activity).
The nature of a further data set: log P. The conditions noted are these: n-octanol/water. It counts as physicochemical.
Data set [3] deals with MDCKII-MDR1 transfected cells, which over-express P-gp. Description: Transport and cell association across monolayers of MDCKII-MDR1 cells. The following applies: 5 μM dye, 4.3 mg mL^−1 BSA (23-Se: no added BSA); for PAB (absorptive transport), + inh / PBA (secretory transport), + inh: + […] inhibitor 42.
The next data set concerns P-gp. The experiment in a line: in vitro. The conditions noted are these: dog, MDCK-MDR1.
In data set [4] the test system is MDCKII-MDR1 transfected cells, which over-express P-gp. The conditions noted are these: dog, MDCK-MDR1.

T1 sequence (P08183 whole entry): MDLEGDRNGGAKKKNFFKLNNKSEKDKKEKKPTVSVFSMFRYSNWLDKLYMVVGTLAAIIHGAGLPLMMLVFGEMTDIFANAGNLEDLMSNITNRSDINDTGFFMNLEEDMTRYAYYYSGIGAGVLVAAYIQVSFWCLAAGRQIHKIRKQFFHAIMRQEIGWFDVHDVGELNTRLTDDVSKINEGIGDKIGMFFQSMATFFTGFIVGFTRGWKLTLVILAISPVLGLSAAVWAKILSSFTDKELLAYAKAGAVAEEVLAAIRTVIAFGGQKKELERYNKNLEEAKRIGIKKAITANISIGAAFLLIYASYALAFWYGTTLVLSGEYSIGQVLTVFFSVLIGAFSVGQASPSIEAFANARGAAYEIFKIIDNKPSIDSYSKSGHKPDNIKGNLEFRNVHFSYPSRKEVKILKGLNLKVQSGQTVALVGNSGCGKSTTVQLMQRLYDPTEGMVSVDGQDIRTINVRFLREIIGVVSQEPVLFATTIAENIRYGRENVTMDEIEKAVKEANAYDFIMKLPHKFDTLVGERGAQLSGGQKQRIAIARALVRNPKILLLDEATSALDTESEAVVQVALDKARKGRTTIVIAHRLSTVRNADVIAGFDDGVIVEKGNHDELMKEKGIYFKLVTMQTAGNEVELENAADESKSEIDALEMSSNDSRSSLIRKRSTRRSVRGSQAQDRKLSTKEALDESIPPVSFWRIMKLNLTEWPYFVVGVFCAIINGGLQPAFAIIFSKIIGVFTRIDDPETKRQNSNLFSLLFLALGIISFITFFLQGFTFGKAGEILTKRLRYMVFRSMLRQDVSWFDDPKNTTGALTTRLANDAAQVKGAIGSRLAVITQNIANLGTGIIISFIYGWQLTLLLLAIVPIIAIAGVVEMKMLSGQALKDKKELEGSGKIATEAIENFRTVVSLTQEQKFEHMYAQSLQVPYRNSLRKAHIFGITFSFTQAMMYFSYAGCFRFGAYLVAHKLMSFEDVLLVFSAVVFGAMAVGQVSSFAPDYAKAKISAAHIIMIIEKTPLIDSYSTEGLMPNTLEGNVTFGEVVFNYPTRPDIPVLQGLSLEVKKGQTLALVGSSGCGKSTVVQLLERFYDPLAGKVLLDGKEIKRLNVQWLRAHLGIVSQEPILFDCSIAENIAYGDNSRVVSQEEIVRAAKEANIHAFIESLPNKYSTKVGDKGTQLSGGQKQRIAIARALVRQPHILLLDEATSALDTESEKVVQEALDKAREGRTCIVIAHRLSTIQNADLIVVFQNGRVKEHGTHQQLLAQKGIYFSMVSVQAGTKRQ

On to `CN(C)c1ccc2c(-c3ccccc3)c3ccc(=[N+](C)C)cc-3[se]c2c1` [Compound 1-Se], for which, on human P-gp-His10 [1], the Km amounted to 9.1 ± 1.1 µM.
Turning to `CN(C)c1ccc2c(-c3ccccc3)c3ccc(=[N+](C)C)cc-3[te]c2c1` [Compound 1-Te], the Km on human P-gp-His10 [1] is 8.3 ± 0.8 µM.
In the case of `CN(C)c1ccc(-c2c3ccc(=[N+](C)C)cc-3sc3cc(N(C)C)ccc23)cc1` [Compound 5-S], at human P-gp-His10 [2], the Km was found to be 8.3 ± 1.2 µM.
With `CN(C)c1ccc(-c2c3ccc(=[N+](C)C)cc-3[se]c3cc(N(C)C)ccc23)cc1` [Compound 5-Se], the Km at human P-gp-His10 [1] was determined as 10.1 ± 0.7 µM.
Same read-out and setting: the value for `CN(C)c1ccc(-c2c3ccc(=[N+](C)C)cc-3[te]c3cc(N(C)C)ccc23)cc1` [Compound 5-Te] was 9 ± 0.8 µM.
As for `CN(C)c1cccc(-c2c3ccc(=[N+](C)C)cc-3sc3cc(N(C)C)ccc23)c1` [Compound 7-S], the Km at human P-gp-His10 [2] is 3.4 ± 0.6 µM.
In the case of `CN(C)c1cccc(-c2c3ccc(=[N+](C)C)cc-3[se]c3cc(N(C)C)ccc23)c1` [Compound 7-Se], the Km at human P-gp-His10 [1] was determined as 3.5 ± 0.2 µM.
For `CN(C)c1cccc(-c2c3ccc(=[N+](C)C)cc-3[te]c3cc(N(C)C)ccc23)c1` [Compound 7-Te], the Km at human P-gp-His10 [1] came out at 2 ± 0.1 µM.
For `COc1cccc(-c2c3ccc(=[N+](C)C)cc-3sc3cc(N(C)C)ccc23)c1` [Compound 10-S], the Km at human P-gp-His10 [2] worked out at 3.9 ± 0.1 µM.
Take `COc1cccc(-c2c3ccc(=[N+](C)C)cc-3[se]c3cc(N(C)C)ccc23)c1` [Compound 10-Se]: the Km at human P-gp-His10 [1] turned out to be 3.3 ± 0.6 µM.
The same measure, in the same setting: the value for `COc1cccc(-c2c3ccc(=[N+](C)C)cc-3[te]c3cc(N(C)C)ccc23)c1` [Compound 10-Te] was 3.2 ± 1 µM.
With `CN(C)c1ccc2c(-c3ccc(C(=S)N4CCCCC4)s3)c3ccc(N(C)C)cc3[s+]c2c1` [Compound 30-S, 3,6-Bis(dimethylamino)-9-(N-piperidyl-2-thienyl-5-thiocarboxamido)thioxanthylium Hexafluorophosphate], the Km at human P-gp-His10 [2] was 0.36 ± 0.08 µM.
As a reminder, the log P is the decadic logarithm of the partition coefficient of the neutral form, usually between octanol and water. As to `CN(C)c1ccc2c(-c3ccc(C(=S)N4CCCCC4)s3)c3ccc(N(C)C)cc3[te+]c2c1.F[P-](F)(F)(F)(F)F` [Compound 30-Te, 3,6-Bisa(dimethylamino)-9-(N-piperidyl-2-thienyl-5-thiocarboxamido)telluroxanthylium Hexafluorophosphate], the “log P” value in “log P” is given as 0.9. In data set [3], the “PAB (absorptive transport), + inh” value amounted to 1.2 ± 0.1 nm/s and the “PBA (secretory transport), + inh” value is 0.2 ± 0.01 ×10⁻⁶ cm/s. Besides, in data set [3] (no inhibitor), the “PAB (absorptive transport)” value came to 0.09 ± 0.01 ×10⁻⁶ cm/s and the “PBA (secretory transport)” value was determined as 2.2 ± 0.8 ×10⁻⁶ cm/s. Also, the Km on human P-gp-His10 [2] is 0.41 ± 0.03 µM.
Take `CN(C)c1ccc2c(-c3ccc(C(=S)N4CCCCC4)s3)c3cc4c5c(c3[s+]c2c1)CCCN5CCC4.F[P-](F)(F)(F)(F)F` [Compound 31-S, 12-(Dimethylamino)-2,3,6,7-tetrahydro-9-(N-Piperidyl-2-thienyl-5-thiocarboxamido)-1H,5H-thioxantheno[2,3,4-ij]quinolizin-14-ium Hexafluorophosphate]: in data set [3], the “PAB (absorptive transport), + inh” value is 0.8 ± 0.1 0.8 ± 0.1 nm s^−1 and the “PBA (secretory transport), + inh” value was found to be 0.16 ± 0.01 ×10⁻⁶ cm/s. Besides, in data set [3] (no inhibitor), the “PBA (secretory transport)” value was 5 ×10⁻⁶ cm/s and 5 ± 0.1 ×10⁻⁶ cm/s. Further, at human P-gp-His10 [2], the Km amounted to 0.087 ± 0.012 µM.
What is called Papp is the rate of passage across a membrane or cell layer, normalised by area and donor concentration. Molecule `CN(C)c1ccc2c(-c3ccc(CCl)cc3)c3ccc(=[N+](C)C)cc-3oc2c1.[Br-]` [TMR, tetramethylrosamine] had a Papp in the data set with P-gp of 1.7 ± 0.5 ×10⁻⁶ cm/s. Also, in data set [4], the “P BA/AB (ratio of secretory to absorptive transport), + inh” value is on record as 338 1.6; the “PAB (absorptive transport)” value is 3.0 ± 0.1 14 ± 1 nm s^−1; the “PAB (absorptive transport), + inh” value is listed as 3.0 ± 0.1 14 ± 1 nm s^−1; the “PBA (secretory transport), + inh” value is given as 1010 ± 10 21 ± 2 nm s^−1.
